Source: publication PMC7503370, “Cellular Signaling and Anti-Apoptotic Effects of Prolactin-Releasing Peptide and Its Analog on SH-SY5Y Cells” (International Journal of Molecular Sciences, 2020)
Numbered stars: 1 amine (or outer) side, 2 acyl side, 3 side chain; on linkers, the order of the positions; unused ones are H or OH. Side chains are listed from the residue outwards. Peptide text beside a SMILES is read from it. * marks the point of attachment. γGlu = O=C(O)[C@H](CCC(=O)[*:2])N[*:1]; Palmitoyl = CCCCCCCCCCCCCCCC(=O)*

What was measured:
Assay type in all cases: cell-based, human
[1] = test system: PI3K/Akt signaling pathway in SH-SY5Y cells; assay: Western blotting of PI3K/Akt signaling pathway after 8 min incubation; settings: 1 × 10^-5 M, 37 °C, vs control cells (medium alone), normalized to GAPDH, n = 3, triplicates
Method: Figure 1 Prolactin-releasing peptide 31 (PrRP31) and palm^11-PrRP31 increased phosphoinositide-3 kinase (PI3K/Akt) signaling pathway in SH-SY5Y cells. Immunoblots: (a) and their quantifications: (b). SH-SY5Y cells were incubated either with PrRP31 and its palmitoylated analog and scrambled at a final concentration 1 × 10^-5 M, or with insulin at the final concentration 1 × 10^−7 M at 37 °C for 8 min, or medium alone (control). Activation was expressed as the ratio of the activated protein to the total amount of the protein, both normalized to loading control, glyceraldehyde 3-phosphate dehydrogenase (GAPDH). Data are presented as the means ± SEM as a percentage of control cells analyzed by one-way ANOVA followed by the Dunnett post hoc test, * p < 0.5, ** p < 0.01, **** p < 0.0001 (n = 3, each sample in triplicates).
(§1) For the investigation of the molecular mechanism of PrRP31 and its analog in the cells, signaling pathways were studied by Western blotting (WB). The cells were cultured in 6-well plates at a density of 800,000 cells per well. Growth medium was exchanged for serum-free DMEM 16 h before an experiment, and then, the cells were incubated with PrRP31, palm^11-PrRP31, or scrambled peptide at a final concentration of 1 × 10^−5 M or insulin at a concentration of 1 × 10^−7 M at 37 °C for 8 min. The cells were rapidly cooled on ice and lysed in 400 µl of Laemmli sample buffer (62.5 mM Tris-HCl with pH 6.8, 2% SDS, 10% glycerol, 0.01% bromophenol blue, 5% mercaptoethanol, 50 mM NaF, and 1 mM Na3VO4) and stored at −20 °C. Afterward, the cell lysates were analyzed by WB. SDS-electrophoresis and WB were carried out using a Criterion system with a 26-well 4−15% Criterion^TM TGX^TM Precast Midi Protein Gel (Bio-Rad, Hercules, CA, USA) at a constant voltage of 200 V or 100 V, respectively.
(§2) Subsequently, the membranes were incubated overnight with primary antibody (Ab) at 4 °C, according to the manufacturer´s instructions (Table 2). The next day, the membranes were incubated with an HRP-linked secondary antibody for 1 h at room temperature. Chemiluminescence was visualized with a ChemiDoc^TM System (Bio-Rad). Band intensities were normalized using glyceraldehyde 3-phosphate dehydrogenase (GAPDH) as an internal loading control.
(§3) Eight minutes of incubation was performed in a series of experiments with different exposure times (5, 10, 15, 30, and 60 min) to PrRP31 and its palmitoylated analog. Activation of analogs was strongest after 10 min. Then, the cells were treated with inhibitors of signaling pathways for 2 min, and analogs were added for 8 min. The time of exposure was set to 8 min to ensure that the incubation time for PrRP31 and its palmitoylated analog was the same. The controls and compounds were tested in triplicate in three independent experiments. The PI3K/Akt pathway is one of the main signaling pathways of insulin; therefore, insulin was used as a positive control. Scrambled peptide was used as a negative control. Activation is expressed as the ratio of the activated protein to the total amount of the protein. GAPDH was used as a loading control.

[2] = test system: p-m-Tor, p-GSK-3β, p-ERK, p-CREB in SH-SY5Y cells; assay: Western blotting with selective inhibitors of signaling pathways; settings: insulin 1 × 10^−7 M, 37 °C, 8 min; for p-CREB after incubation with peptide, no inhibitor / p-ERK after incubation with peptide, no inhibitor / p-m-Tor (Ser2448) after application of peptide, no inhibitor: PrRP31 and palm^11-PrRP31 1 × 10^−5 M
Method: Immunoblots with PrRP31 and palm^11-PrRP31: (a) and insulin: (b) and their quantifications: (c). SH-SY5Y cells were incubated firstly with selective inhibitors for 2 min and then either with PrRP31 and its palmitoylated analog at a final concentration 1 × 10^−5 M, or with insulin in the final concentration 1 × 10^−7 M at 37 °C for 8 min, or alone in serum-free medium. Activated protein was normalized to loading control, GAPDH. Data are presented as the means ± SEM as a percentage of control cells treated with medium alone. Analysis is made between groups as shown in the graph by a Student’s t-test, * p < 0.5, ** p < 0.01, *** p < 0.001(each sample in triplicates).
as §3
For further research, inhibitors of signaling pathways were used. The growth medium was exchanged for serum-free DMEM 16 h before the experiment. On the day of the experiment, cells were incubated for 2 min with rapamycin, SB216736 or U0126 at a final concentration of 1 × 10^−6 M; then, PrRP31, palm^11-PrRP31 or scrambled peptide at a final concentration of 1 × 10^−5 M or insulin at a concentration of 1 × 10^−7 M was added for 8 min. The plates were stored at 37 °C. The controls and compounds were tested in triplicate.

[3] = test system: Tau protein phosphorylation in SH-SY5Y cells; assay: Western blotting of Tau phosphorylation in MG-stressed cells; settings: 4 h pretreatment 1 × 10^−5 M, then 0.6 mM MG 16 h, vs MG; for attenuation of MG-increased Tau phosphorylation at Ser396: normalized to GAPDH
Method: Figure 8 PrRP31 and palm^11-PrRP31 attenuate Tau hyperphosphorylation at the epitope Ser396 in SH-SY5Y. Immunoblots with: (a) and their quantifications: (b). SH-SY5Y cells were pretreated with PrRP31 and palm^11-PrRP31 at a concentration of 1 × 10^−5 M for 4 h and then stressed with 0.6 mM MG for 16 h. Activation was expressed as the ratio of the activated protein to the total amount of the protein, both normalized to loading control, GAPDH. Data are presented as the means ± SEM as a percentage of control cells treated with medium alone. Analysis is made vs. MG by a Student’s t-test, * p < 0.5, ** p < 0.01 (each sample replicate in triplicate).
as §1, §2
For analysis of the molecular mechanism during MG stress, the growth medium was exchanged for serum-free DMEM 16 h before the experiment. The cells were pretreated with 1 × 10^−5 M PrRP31 or palm^11-PrRP31 for 4 h; then, MG was added to a final concentration of 0.6 mM, and the cells were incubated at 37 °C for 16 h. The controls and compounds were tested in triplicate.

[4] = normalized to GAPDH, triplicates

| Compound | increase of the level of p-Akt (Ser473)/Akt [1] [%] | increase of the level of p-Akt (Thr308)/Akt [1] [%] | increase of the level of p-GSK3β (inhibitory Ser9)/GSK3β [1] [%] | increase of the level of p-PDK1 (Ser241)/PDK1 [1] [%] | increase of the level of p-m-Tor (Ser2448)/m-Tor [1] [%] | p-CREB after incubation with peptide, no inhibitor [2] | p-ERK after incubation with peptide, no inhibitor [2] | p-m-Tor (Ser2448) after application of peptide, no inhibitor [2, 4] | p-GSK-3β (Ser9) after incubation with peptide, no inhibitor ([2]; palm^11-PrRP31 1 × 10^−5 M, normalized to GAPDH, triplicates) | attenuation of MG-increased Tau phosphorylation at Ser396 ([3]; triplicates) [%] | increase in unphosphorylated Tau (Tau 1 antibody, Ser198/199/202)/Tau 5 ([3]; triplicates) [%] | Tau phosphorylation at Ser198/199/202 (Tau 1)/Tau 5 induced by MG, effect of pretreatment [3] |
| --- | --- | --- | --- | --- | --- | --- | --- | --- | --- | --- | --- | --- |
| CCCCCCCCCCCCCCCC(=O)N[C@@H](CCC(=O)NCCCC[C@H](NC(=O)[C@@H](NC(=O)[C@H](CCC(=O)O)NC(=O)[C@H](CCSC)NC(=O)[C@H](CO)NC(=O)[C@H](Cc1c[nH]cn1)NC(=O)[C@H](CCCNC(=N)N)NC(=O)[C@H](Cc1c[nH]cn1)NC(=O)[C@@H](NC(=O)[C@H](CCCNC(=N)N)NC(=O)[C@@H](N)CO)[C@@H](C)O)[C@@H](C)CC)C(=O)N[C@H](C(=O)N1CCC[C@H]1C(=O)N[C@@H](CC(=O)O)C(=O)N[C@H](C(=O)N[C@@H](CC(N)=O)C(=O)N1CCC[C@H]1C(=O)N[C@@H](C)C(=O)N[C@@H](Cc1c[nH]c2ccccc12)C(=O)N[C@@H](Cc1ccc(O)cc1)C(=O)N[C@@H](C)C(=O)N[C@@H](CO)C(=O)N[C@@H](CCCNC(=N)N)C(=O)NCC(=O)N[C@H](C(=O)N[C@@H](CCCNC(=N)N)C(=O)N1CCC[C@H]1C(=O)N[C@H](C(=O)NCC(=O)N[C@@H](CCCNC(=N)N)C(=O)N[C@@H](Cc1ccccc1)C(N)=O)C(C)C)[C@@H](C)CC)[C@@H](C)CC)[C@@H](C)O)C(=O)O [palm^11-PrRP31] (H-SRTHRHSMEIK([γGlu-Palmitoyl])TPDINPAWYASRGIRPVGRF-NH2; N-terminus assumed) | 48 | 36 | 85 | 20 | 22 | increased | increased | significantly increased | slight increase | 32 | 32 | – |
| CC[C@H](C)[C@H](NC(=O)CNC(=O)[C@H](CCCNC(=N)N)NC(=O)[C@H](CO)NC(=O)[C@H](C)NC(=O)[C@H](Cc1ccc(O)cc1)NC(=O)[C@H](Cc1c[nH]c2ccccc12)NC(=O)[C@H](C)NC(=O)[C@@H]1CCCN1C(=O)[C@H](CC(N)=O)NC(=O)[C@@H](NC(=O)[C@H](CC(=O)O)NC(=O)[C@@H]1CCCN1C(=O)[C@@H](NC(=O)[C@H](CCCNC(=N)N)NC(=O)[C@@H](NC(=O)[C@H](CCC(=O)O)NC(=O)[C@H](CCSC)NC(=O)[C@H](CO)NC(=O)[C@H](Cc1c[nH]cn1)NC(=O)[C@H](CCCNC(=N)N)NC(=O)[C@H](Cc1c[nH]cn1)NC(=O)[C@@H](NC(=O)[C@H](CCCNC(=N)N)NC(=O)[C@@H](N)CO)[C@@H](C)O)[C@@H](C)CC)[C@@H](C)O)[C@@H](C)CC)C(=O)N[C@@H](CCCNC(=N)N)C(=O)N1CCC[C@H]1C(=O)N[C@H](C(=O)NCC(=O)N[C@@H](CCCNC(=N)N)C(=O)N[C@@H](Cc1ccccc1)C(N)=O)C(C)C [PrRP31] | 53 | – | 41 | – | 22 | increased | increased | significantly increased | – | 46 | – | tended to decrease |
